IC50 and Activity data for 18 compounds are collected here from ChEMBL document CHEMBL4680315, “Synthesis and anticancer potential of novel 5,6-oxygenated and/or halogenated steroidal d-homo lactones” (Bioorg Med Chem, 2021).

The source made the active and inactive calls. The calls are words filed in the database; no cut-off is given here.

Experiment [1] relates to MRC5. Kind of experiment: Cytotoxicity against human MRC5 cells assessed as cell growth inhibition measured after 72 hrs by MTT assay. It counts as cell-based. To be noted: MRC5, 72 h. (Tetrazolium assays rely on reduction of a dye to a coloured formazan, in cell work by metabolically active cells.)
The subject of experiment [2] is HeLa. Kind of experiment: Cytotoxicity against human Hela cells assessed as cell growth inhibition measured after 72 hrs by MTT assay. Type of experiment: functional, cell-based.
The test system of experiment [3] is MDA-MB-231. Kind of experiment: Cytotoxicity against human MDA-MB-231 cells assessed as cell growth inhibition measured after 72 hrs by MTT assay. Type of experiment: functional, cell-based. To be noted: MDA-MB-231, 72 h.
The test system of experiment [4] is A549. Kind of experiment: Induction of apoptosis in human A549 cells assessed as late apoptotic cells by measuring red colour signal measured after 72 hrs by fluorescent double-staining method. Type of experiment: functional, cell-based.
Experiment [5] has as its system A549. The experiment in a line: Cytotoxicity against human A549 cells assessed as cell growth inhibition measured after 72 hrs by MTT assay. Type of experiment: functional, cell-based. To be noted: A549, 72 h.
In experiment [6] the test system is PC-3. The experiment in a line: Cytotoxicity against human PC-3 cells assessed as cell growth inhibition measured after 72 hrs by MTT assay. Type of experiment: functional, cell-based. To be noted: PC-3, 72 h.
For experiment [7], the system named is HT-29. Kind of experiment: Cytotoxicity against human HT-29 cells assessed as cell growth inhibition measured after 72 hrs by MTT assay. It counts as functional, cell-based. To be noted: HT-29, 72 h.
Experiment [8] has as its system MCF7. The experiment in a line: Cytotoxicity activity against human MCF7 assessed as inhibition of cell growth measured after 72 hrs by MTT assay. Type of experiment: functional, cell-based. To be noted: MCF7, 72 h.
Experiment [9] relates to HT-29. The experiment in a line: Induction of apoptosis in human HT-29 cells assessed as late apoptotic cells by measuring red colour signal measured after 72 hrs by fluorescent double-staining method. Type of experiment: functional, cell-based.
The test system of experiment [10] is MDA-MB-231. Kind of experiment: Induction of apoptosis in human MDA-MB-231 cells assessed as late apoptotic cells by measuring red colour signal measured after 72 hrs by fluorescent double-staining method. It counts as functional, cell-based.
For experiment [11], the target named is T1, Estrogen receptor (Homo sapiens) (UniProt P03372).
T1 sequence (whole entry): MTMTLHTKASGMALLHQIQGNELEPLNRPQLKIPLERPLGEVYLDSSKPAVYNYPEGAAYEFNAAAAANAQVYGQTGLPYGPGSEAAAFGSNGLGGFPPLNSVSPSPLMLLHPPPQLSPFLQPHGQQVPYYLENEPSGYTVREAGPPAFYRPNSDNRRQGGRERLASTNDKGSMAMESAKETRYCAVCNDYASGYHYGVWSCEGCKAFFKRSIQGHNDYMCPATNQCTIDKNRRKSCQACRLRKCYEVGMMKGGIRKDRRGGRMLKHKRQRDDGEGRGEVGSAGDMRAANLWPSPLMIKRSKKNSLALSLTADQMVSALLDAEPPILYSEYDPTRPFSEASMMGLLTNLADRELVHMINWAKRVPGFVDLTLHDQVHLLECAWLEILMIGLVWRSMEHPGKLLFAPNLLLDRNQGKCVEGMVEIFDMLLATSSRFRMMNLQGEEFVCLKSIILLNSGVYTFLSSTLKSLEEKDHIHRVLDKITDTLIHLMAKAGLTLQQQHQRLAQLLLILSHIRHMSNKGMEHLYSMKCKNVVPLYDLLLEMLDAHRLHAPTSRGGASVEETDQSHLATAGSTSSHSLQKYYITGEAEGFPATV
The experiment in a line: Binding affinity to EYFP-tagged human ERalpha-LBD expressed in Saccharomyces cerevisiae FY250 strain assessed as fluorescence intensity at 10 uM incubated for 14 to 16 hrs by fluorescence spectroscopy based fluorescence microscopy relative to control. To be noted: time 14-16 hrs.

The target of experiment [12] is Estrogen receptor beta (Homo sapiens) (UniProt Q92731). Kind of experiment: Binding affinity to EYFP-tagged human ERbeta-LBD expressed in Saccharomyces cerevisiae FY250 strain assessed as fluorescence intensity at 10 uM incubated for 14 to 16 hrs by fluorescence spectroscopy based fluorescence microscopy relative to control. To be noted: time 14-16 hrs.
Chain of Estrogen receptor beta (Homo sapiens) (Q92731 whole entry, the tested form may be a part): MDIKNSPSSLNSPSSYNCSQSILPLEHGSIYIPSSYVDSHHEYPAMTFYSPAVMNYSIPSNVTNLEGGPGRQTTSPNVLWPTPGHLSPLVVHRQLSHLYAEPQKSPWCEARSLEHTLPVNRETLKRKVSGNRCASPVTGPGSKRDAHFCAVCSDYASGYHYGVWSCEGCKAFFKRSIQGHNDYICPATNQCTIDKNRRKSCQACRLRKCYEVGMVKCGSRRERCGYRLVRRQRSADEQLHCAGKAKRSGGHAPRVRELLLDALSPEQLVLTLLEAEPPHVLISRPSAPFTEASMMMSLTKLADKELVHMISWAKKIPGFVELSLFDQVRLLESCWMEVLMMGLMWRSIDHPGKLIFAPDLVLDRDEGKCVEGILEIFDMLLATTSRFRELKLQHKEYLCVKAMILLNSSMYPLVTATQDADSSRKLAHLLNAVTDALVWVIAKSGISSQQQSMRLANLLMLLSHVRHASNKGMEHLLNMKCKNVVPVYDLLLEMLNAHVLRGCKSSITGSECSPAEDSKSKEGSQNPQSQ

What is called IC50 is the midpoint of a concentration-inhibition curve. Take `CC(=O)O[C@H]1CC[C@]2(C)[C@H]3CC[C@]4(C)COC(=O)C[C@H]4[C@@H]3C[C@@H](Cl)[C@@]2(Cl)C1`: the IC50 is greater than 100 µM in [1]; 25.9 µM in experiment [2]; 23.7 µM in experiment [3]; 15.5 µM in experiment [5]; greater than 100 µM in [6]; 10.8 µM in experiment [7]. In addition, the half-maximal inhibitory concentration (IC50) in experiment [8] is greater than 100 µM. Also, the outcome in [4], in experiment [9] and in experiment [10] was Active.
With `CC(=O)O[C@H]1CC[C@]2(C)[C@H]3CC[C@]4(C)COC(=O)C[C@H]4[C@@H]3C[C@@H](O)[C@@]2(Cl)C1`, the half-inhibitory concentration (IC50) is greater than 100 µM in experiment [1]; 36.9 µM in experiment [2]; greater than 100 µM in [3]; greater than 100 µM in experiment [5]; greater than 100 µM in [6]; 72.3 µM in experiment [7]. Moreover, the concentration for half-maximal inhibition (IC50) in experiment [8] is greater than 100 µM.
`CC(=O)O[C@H]1CC[C@]2(C)[C@H]3CC[C@]4(C)COC(=O)C[C@H]4[C@@H]3C[C@@H](Br)[C@@]2(Br)C1`: the outcome in experiment [11], in experiment [4] and in [10] was Active. The half-maximal inhibitory concentration (IC50) is greater than 100 µM in experiment [1]; 9.46 µM in experiment [2]; 13.3 µM in experiment [3]; 36.9 µM in [5]; greater than 100 µM in experiment [6]; 16.2 µM in [7]. Moreover, the 50% inhibitory concentration (IC50) in [8] stood at 34.9 µM.
For `CO[C@]12C[C@@H](O)CC[C@]1(C)[C@H]1CC[C@]3(C)COC(=O)C[C@H]3[C@@H]1C[C@H]2O`, the IC50 in experiment [1] was greater than 100 µM; in experiment [2] it was 7.06 µM; in [3] it was 4.4 µM; in experiment [5], greater than 100 µM; in [6] it was 24.8 µM; in experiment [7], greater than 100 µM. For the same compound, the IC50 in [8] was greater than 100 µM. Besides, the result in [10] was Active.
On to `C[C@]12CC[C@H]3[C@@H](CC(=O)[C@@]4(O)CC(=O)CC[C@]34C)[C@@H]1CC(=O)OC2`, for which the outcome in experiment [11] and in experiment [10] was Active. Further, the IC50 in experiment [1] is greater than 100 µM; in [2], 40.1 µM; in experiment [3], 4.81 µM; in experiment [5] it was greater than 100 µM; in experiment [6], greater than 100 µM; in [7] it was 42.2 µM. The half-maximal inhibitory concentration (IC50) in experiment [8] is greater than 100 µM.
`CC(=O)O[C@H]1CC[C@]2(C)[C@H]3CC[C@]4(C)COC(=O)C[C@H]4[C@@H]3C[C@H]3O[C@]32C1`: the result in [11] and in experiment [10] was Active. The IC50 in experiment [1] is greater than 100 µM; in [2] it was 16.9 µM; in [3], 33.9 µM; in experiment [5] it was greater than 100 µM; in experiment [6] it was greater than 100 µM; in experiment [7], 14 µM. Moreover, the half-maximal inhibitory concentration (IC50) in experiment [8] is 100 µM.
As for `CC(=O)O[C@H]1CC[C@]2(C)[C@H]3CC[C@]4(C)COC(=O)C[C@H]4[C@@H]3C[C@@H](O)[C@@]2(Br)C1`, the concentration for half-maximal inhibition (IC50) in experiment [1] was greater than 100 µM; in experiment [2], 13.6 µM; in experiment [3], 26.5 µM; in [5] it was 26.1 µM; in experiment [6] it was greater than 100 µM; in experiment [7], greater than 100 µM. Besides, in [8], the IC50 turned out to be 86.6 µM. The result in [10] was Active.
On to `C[C@]12CCC(=O)C(O)=C1CC[C@@H]1[C@@H]2CC[C@]2(C)C(=O)CC[C@@H]12` [FORMESTANE], for which the half-inhibitory concentration (IC50) is 0.1 µM in experiment [1]; 3.36 µM in experiment [2]; 38.6 µM in [5]; 26.4 µM in experiment [6]; greater than 100 µM in [7]; greater than 100 µM in experiment [8].
As to `COc1cccc2c1C(=O)c1c(O)c3c(c(O)c1C2=O)C[C@@](O)(C(=O)CO)C[C@@H]3O[C@H]1C[C@H](N)[C@H](O)[C@H](C)O1` [DOXORUBICIN], the IC50 was 0.24 µM in experiment [1], greater than 100 µM in experiment [5] and 84.2 µM in experiment [6].
For the compound `CC(=O)O[C@H]1CC[C@]2(C)[C@H]3CC[C@]4(C)COC(=O)C[C@H]4[C@@H]3C[C@H](Br)[C@]2(O)C1`, the IC50 in experiment [1], in [2], in experiment [3], in [5], in experiment [6] and in [7] was greater than 100 µM in each case. Moreover, the IC50 in experiment [8] stood at 12.9 µM.
Regarding `CC(=O)O[C@H]1CC[C@]2(C)[C@H]3CC[C@]4(C)COC(=O)C[C@H]4[C@@H]3C[C@@H](O)[C@@]2(F)C1`, the half-maximal inhibitory concentration (IC50) in [1] was greater than 100 µM; in experiment [2] it was greater than 100 µM; in experiment [3], 9.1 µM; in experiment [5] it was greater than 100 µM; in experiment [6], greater than 100 µM; in experiment [7] it was 21.2 µM. For the same compound, in experiment [8], the IC50 was 42.9 µM. The result in experiment [12] and in [10] was Active.
For the compound `C[C@]12CC[C@H]3[C@@H](CC(=O)[C@@]4(O)C[C@@H](O)CC[C@]34C)[C@@H]1CC(=O)OC2`, the 50% inhibitory concentration (IC50) was greater than 100 µM in [1]; 33.6 µM in [2]; 6.16 µM in [3]; greater than 100 µM in experiment [5]; greater than 100 µM in experiment [6]; greater than 100 µM in experiment [7]. Besides, the IC50 in experiment [8] is greater than 100 µM. The result in experiment [10] was Active.
Regarding `C[C@]12CC[C@H]3[C@@H](C[C@@H](O)[C@@]4(O)C[C@@H](O)CC[C@]34C)[C@@H]1CC(=O)OC2`, the IC50 is greater than 100 µM in experiment [1]; 93.6 µM in [2]; 13.8 µM in experiment [3]; 0.99 µM in experiment [5]; greater than 100 µM in experiment [6]; 9.34 µM in [7]. The IC50 in experiment [8] came out at 8.62 µM. Moreover, the outcome in experiment [4], in experiment [9] and in [10] was Active.
For the compound `CC(=O)O[C@H]1CC[C@]2(C)[C@H]3CC[C@]4(C)COC(=O)C[C@H]4[C@@H]3C[C@@H](O)[C@@]2(O)C1`, the IC50 in [1] was greater than 100 µM; in experiment [2] it was greater than 100 µM; in experiment [3] it was greater than 100 µM; in experiment [5] it was greater than 100 µM; in [6], greater than 100 µM; in experiment [7], 86.6 µM. In [8], the IC50 was greater than 100 µM. The result in experiment [12] was Active.
`CC(=O)O[C@H]1CC[C@]2(C)[C@H]3CC[C@]4(C)COC(=O)C[C@H]4[C@@H]3CC(=O)[C@@]2(O)C1`: the half-inhibitory concentration (IC50) in experiment [1] is greater than 100 µM; in experiment [2], greater than 100 µM; in experiment [3] it was 23.7 µM; in experiment [5], greater than 100 µM; in [6], greater than 100 µM; in [7], greater than 100 µM. Moreover, the IC50 in experiment [8] is 81.8 µM. In addition, in [10], the result was Active.
On to `CC(=O)O[C@H]1CC[C@]2(C)[C@H]3CC[C@]4(C)COC(=O)C[C@H]4[C@@H]3C[C@@H](OC(C)=O)[C@@]2(O)C1`, for which the half-maximal inhibitory concentration (IC50) in experiment [1] is greater than 100 µM; in [2] it was 8.66 µM; in experiment [3], 31 µM; in [5], greater than 100 µM; in experiment [6], 6.6 µM; in [7], greater than 100 µM. For the same compound, in experiment [8], the half-maximal inhibitory concentration (IC50) is 12.7 µM. Also, in experiment [10], the result was Active.
With `CO[C@@H]1C[C@H]2[C@@H]3CC(=O)OC[C@@]3(C)CC[C@@H]2[C@@]2(C)CC[C@H](O)C[C@]12O`, the IC50 in experiment [1] is greater than 100 µM; in experiment [2] it was 27 µM; in experiment [3], 3.38 µM; in experiment [5] it was greater than 100 µM; in experiment [6] it was 10.8 µM; in [7], greater than 100 µM. In experiment [8], the half-maximal inhibitory concentration (IC50) came out at 73.6 µM. In addition, in experiment [10], the result was Active.
For `CC(=O)O[C@H]1CC[C@]2(C)[C@H]3CC[C@]4(C)COC(=O)C[C@H]4[C@@H]3C[C@@H]3O[C@@]32C1`, the IC50 in [1] was greater than 100 µM; in [2] it was 99.2 µM; in [3], 6.16 µM; in experiment [5], greater than 100 µM; in experiment [6] it was greater than 100 µM; in experiment [7] it was greater than 100 µM. Moreover, the IC50 in [8] is greater than 100 µM. The result in [10] was Active.
